The target in assay [1] is T1, cS1P5 receptor (Canis lupus familiaris, UniProt A0A8I3Q0H0). The experiment in a line: 35S-GTPγS binding assay with membranes from transfected CHO cells expressing the cS1P5 receptor. It is filed as biochemical, Canis (dog). As to conditions: 5 μM GDP, 100 pM 35S-GTPγS, one hour at room temperature, FIG. 4, read-out: EC50 (35S-GTPγS binding, coupling GTP to Gα). The method, then:
Functional coupling of S1P5 receptor to G proteins was measured in a ^35S-GTPγS binding assay. Membranes were prepared from transfected cells by homogenization in ice cold 20 mM HEPES pH 7.4, 10 mM EDTA using a Kinematica polytron (setting 5, for 10 seconds). Homogenates were centrifuged at 48,000×g for 15 minutes at 4° C. and the pellet suspended in 20 mM HEPES pH 7.4, 0.1 mM EDTA. Following a second centrifugation, the final pellet was suspended in 20 mM HEPES pH 7.4, 100 mM NaCl, 10 mM MgCl2. Membranes were incubated in 200 μL with 5 μM GDP, various concentrations of S1P (sonicated in 1% BSA), and 100 pM ^35S-GTPγS (NEN; specific activity 1250 Ci/mmol) in 96 well microtiter dishes. Binding was performed for one hour at room temperature, and terminated by harvesting the membranes onto GF/B filter plates with a Packard Filtermate Universal Harvester. After drying the filter plates for 30 min, 40 μL of MICROSCINT 20 was added to each well and binding was measured on a Packard Top Count scintillation counter.

Assay [2] has as its target T1, cS1P5 receptor. The experiment in a line: S1P ligand binding assay with transfected CHO cells expressing the cS1P5 receptor. The arrangement: species or system Canis (dog). Particulars: 33P-S1P, 60 minutes at room temperature, FIG. 3. The protocol: The transfected CHO cells from Example 2 expressing the cS1P5 receptor were evaluated for the ability of the cS1P5 receptor expressed in the cells to properly integrate into the cell membrane and bind S1P.
Transfected CHO cells from Example 2 were harvested with enzyme-free dissociation solution (Specialty Media, Lavallette, N.J.). The cells were washed once in cold PBS and suspended in S1P binding buffer (50 mM HEPES-Na, pH 7.5, 5mM MgCl2, 1 mM CaCl2, 0.5% FAF-BSA). ^33P-S1P was synthesized enzymatically from γ^33P-ATP and sphingosine using a crude extract with sphingosine kinase activity in a reaction mix containing 50 mM KH2PO4, 1 mM mercaptoethanol, 1 mM Na3VO4, 25 mM KF, 2 mM semicarbazide, 1 mM Na2EDTA, 5 mM MgCl2, […], 0.1% TritonX-114, and 1 mCi γ^33P-ATP (NEN; specific activity 2000 Ci/mmol). Reaction products were extracted with butanol and ^33P-sphingosine-1-phosphate was purified by HPLC.
^33P-S1P (0.1 uCi/ml) was sonicated with 0.2 nM sphingosine-1-phosphate dissolved in binding buffer; 100 μL of the mixture was added to 100 μL cells (1×10^5). Binding was performed for 60 minutes at room temperature. […] After drying the filter plates for 30 minutes, 50 μL of MICROSCINT 20 was added to each well and binding was measured with a Packard Top Count. Non-specific binding was defined as the amount of radioactivity remaining in the presence of 200 nM cold S1P.

pEC50: −log10 of the molar value.

For the compound `CCCCCCCCCCCCC/C=C/[C@@H](O)[C@@H](N)COP(=O)(O)O` [S1P, sphingosine-1-phosphate], the pEC50 on cS1P5 receptor [1] was roughly 9.10; at cS1P5 receptor [2], roughly 9.68.

In general, pEC50 refers to −log10 of the EC50, conventionally taken in molar units.

(Values after patent publication US20090191578A1, “Canis sphingosine 1-phosphate receptor isoform 5” (MERCK & CO., INC, priority 2004, published 2009).)
